One assay deals with H-Ras (Homo sapiens, UniProt P01112). Kind of assay: Multiplex bead-based flow cytometry dose-response of fluorescent guanine nucleotide binding. (Flow cytometry measures light scatter and fluorescence of single cells or particles in a stream.)
For the next assay, the target named is Rac1 (Homo sapiens, UniProt P63000). Described as above.
The subject of assay [1] is H358 cells. Kind of assay: CellTiter-Glo viability assay. It is filed as cell-based. The note with it: 48 h, compared with U937 FPRΔST control cells. The method, then:
(§1) Cells were plated in a 96-well plate at 2000 cells per well and allowed to incubate overnight. Compound 1 or the same volume of DMSO was added on the second day. Viability was examined after 48 h. Data were collected from at least triplicate samples. Results were reported as viability treated/viability untreated (DMSO control). To evaluate apoptosis, the PE Annexin V Apoptosis Kit I was used. In 6-well plates, H358 cells were seeded at 50% confluence, while U937 FPRΔST cells were at 0.02 x 10^6 /mL. After overnight incubation, the cells were treated with compound 1 or DMSO. At 24 h or 48 h, cells were washed with PBS, and resuspended in 100 uL annexin-V binding buffer. After staining with annexin-V-FITC and 7-AAD, cells were analyzed on an Accuri C6 flow cytometer. At least 7,000 cells were measured per individual sample. The annexin^+AAD^- cells are defined as cells undergoing apoptosis. Data were collected from duplicate samples and the experiments were repeated. Results are given as the ratios of the apoptotic populations between the compound-treated and the DMSO-treated cells.
In general terms: In ATP-based viability assays light output follows the ATP content of the culture.

Another assay deals with Cdc42 (Homo sapiens, UniProt P60953). Kind of assay: GTPase and effector interaction assay (PAK-PBD beads), HeLa cell lysates. The settings on record: HeLa cells, 10 μM, 2 h, EGF 10 ng/mL 2 min.
Cdc42, sequence (P60953 whole entry): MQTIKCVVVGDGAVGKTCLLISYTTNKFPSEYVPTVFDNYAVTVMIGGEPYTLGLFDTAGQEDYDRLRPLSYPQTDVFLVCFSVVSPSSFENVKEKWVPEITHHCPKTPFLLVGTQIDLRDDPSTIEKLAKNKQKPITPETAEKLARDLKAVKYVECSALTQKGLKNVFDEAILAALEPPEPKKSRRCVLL
The target in the next assay is Rac1 Q61L (Homo sapiens, UniProt P63000, Q61L). Description: Multiplex bead-based flow cytometry dose-response of fluorescent guanine nucleotide binding. The note with it: EC50 Rac1 Q61L.
Assay [2] has as its system H358 cells. Kind of assay: PE Annexin V apoptosis assay. The settings on record: 24 h or 48 h. It is filed as cell-based. As to the method: as §1
Another assay has as its system U937 FPRΔST cells. Kind of assay: PE Annexin V apoptosis assay. The assay is classed as cell-based. The note with it: 24 h or 48 h. As to the method:
as §1

In assay [3] the test system is EGFR degradation, HeLa cells overexpressing Rab7 wild type. Description: EGFR degradation in Rab7 overexpressing HeLa cells. The assay is classed as cell-based. The note with it: HeLa cells overexpressing Rab7, 100 μM, 3 h, 0-180 min. The method, then: The EGFR degradation assay in HeLa cells was carried out in a similar way to that in SCC-12F cells but with modifications. […] Cell lysates were prepared at various time points and immunoblotted for total EGFR while actin served as a loading control. Experiments were carried out in triplicate.

The subject of assay [4] is EGFR degradation regulated by Rab GTPases, SCC-12F cells. Kind of assay: EGFR degradation in SCC-12F cells. The assay is classed as cell-based. The settings on record: EGF 20 nM, 0-120 min, versus DMSO. As to the method:
SCC-12F cells were seeded in 12-well plates at 0.12 x 10^6 cells/well and allowed to attach overnight. On the day of the experiment, the cells were starved in serum free medium containing 25 μg/mL cycloheximide for 2 h before compounds at different concentrations were added. The cells were treated with compound or DMSO for 0.5 h followed by the addition of ligand EGF at 20 nM. At time 0, 15, 30, 60, and 120 min, the suspension medium was removed and the cells were quickly washed with cold PBS and frozen at -80°C. For electrophoresis and blotting, CellLyticM Cell Lysis buffer containing protease inhibitor cocktails was added to the frozen cells and the protein concentrations were quantified using the Bradford assay. For SDS-PAGE, 10 μg of protein was loaded on each lane. After transblotting, the nitrocellulose membrane was probed with Anti-EGFR and Anti-actin primary antibody and secondary goat anti-rabbit IgG antibody with conjugated peroxidase. Actin served as a loading control. After adding the substrate SuperSignal West Dura, specific band signal was detected with ChemiDoc XRS+ molecular imager and the intensity was quantified using Image Lab software. Experiments were carried out either in duplicate and repeated or in triplicate. Results are given as the ratios of EGFR/actin at time t and EGFR/actin at time 0.

The target in another assay is Cdc42 Q61L (Homo sapiens, UniProt P60953, Q61L). Description: Multiplex bead-based flow cytometry dose-response of fluorescent guanine nucleotide binding. The settings on record: EC50 Cdc42 Q61L.
Cdc42 Q61L, sequence (P60953 whole entry Q61L): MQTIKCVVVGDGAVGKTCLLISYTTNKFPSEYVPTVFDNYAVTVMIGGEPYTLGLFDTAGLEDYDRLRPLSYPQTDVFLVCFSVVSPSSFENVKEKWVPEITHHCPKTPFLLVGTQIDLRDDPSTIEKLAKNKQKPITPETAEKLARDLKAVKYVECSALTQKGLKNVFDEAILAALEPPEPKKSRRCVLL
Assay [5] has as its system GTPases (H-Ras, H-Ras G12V, Cdc42, Cdc42 Q61L, Rac1, Rac1 Q61L, RhoA, Rab7). Kind of assay: Multiplex dose-response assay, statements across the GTPase panel.
Protocol: Briefly, individual GST-GTPases were separately attached to glutathione microsphere beads that were labeled with varying intensity of red fluorescent dye, and subsequently combined. The buffer contains 30 mM HEPES (pH 7.2), 150 mM KCl, 20 mM NaCl, 0.1% BSA, 1 mM DTT, 1 mM EDTA and 0.1% NP-40. For Rho A and Rac1, 1 mM EDTA was replaced with 1 mM MgCl2 to stabilize the protein. […] To study whether the compounds are slow binders, BODIPY^- FL GTP was added either immediately or 2 h after compound addition. […] The curves were fitted to the sigmoidal dose-response equation using GraphPad Prism. Percent response was calculated as the ratio of (sample MCF–negative control MCF) / (positive control MCF–negative control MCF).
Assay [6] has as its system integrin VLA-4 on U937 FPRΔST cells. Description: Integrin activation assay (LDV-FITC binding). The assay is classed as cell-based. The settings on record: LDV-FITC 4 nM, fMLFF 100 nM. The method, then:
The procedure followed the protocols described previously. U937 FPRΔST cells (0.4~0.8 x 10^6 cells/mL) were continuously stirred with a magnetic stir bar at 500 rpm in a test tube. The fluorescence was recorded on a FACScan flow cytometer. The baseline fluorescence of the cells was established for 30 s. Then LDV-FITC at 4 nM was added. After the fluorescence stabilized at ~120 s, the chemotactic ligand fMLFF at 100 nM was added for stimulation. […] All the concentrations given were the final concentrations. The percent inhibition was calculated according to Equation 1 (Supporting Information).

The target of the next assay is H-Ras G12V (Homo sapiens, UniProt P01112, G12V). Kind of assay: Multiplex bead-based flow cytometry dose-response of fluorescent guanine nucleotide binding. The note with it: EC50 H-Ras G12V.
H-Ras G12V, sequence (P01112 whole entry G12V): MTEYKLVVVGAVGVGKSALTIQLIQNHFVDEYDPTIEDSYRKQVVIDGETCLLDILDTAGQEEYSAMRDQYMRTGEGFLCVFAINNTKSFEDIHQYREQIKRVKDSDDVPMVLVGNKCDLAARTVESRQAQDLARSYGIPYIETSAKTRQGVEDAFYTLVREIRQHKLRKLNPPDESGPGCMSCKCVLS
Where [7] appears, read: BODIPY-FL GTP binding, 2 h at 4°C.
Setting [8] is: concentration dependence on BODIPY-FL GDP.

H-Ras, sequence (P01112 whole entry): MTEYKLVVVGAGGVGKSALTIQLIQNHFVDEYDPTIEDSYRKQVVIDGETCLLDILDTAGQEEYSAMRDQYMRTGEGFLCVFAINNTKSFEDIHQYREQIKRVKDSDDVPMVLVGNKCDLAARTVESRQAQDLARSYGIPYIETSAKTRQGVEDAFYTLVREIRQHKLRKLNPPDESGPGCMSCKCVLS

Usually EC50 stands for the concentration giving half of the maximal effect. Lower therefore signals greater potency. In the case of `CC1(C)Cc2c(sc(NC(=S)NC(=O)c3ccccc3)c2C(=O)O)CO1` [Compound 1], the EC50 turned out to be 0.16 ± 0.16 µM on H-Ras (EC50 H-Ras, BODIPY-FL GTP binding, 2 h at 4°C); 0.24 µM on H-Ras (EC50 H-Ras, concentration dependence on BODIPY-FL GDP); 0.1 ± 0.0035 µM at H-Ras (EC50 Ras, with 2 h incubation before BODIPY-FL GTP); 0.13 ± 0.0026 µM at H-Ras (EC50 Ras, without incubation before BODIPY-FL GTP); 0.062 ± 0.049 µM at Rac1 (EC50 Rac1, BODIPY-FL GTP binding, 2 h at 4°C, 1 mM MgCl2); 0.099 µM at Rac1 (EC50 Rac1, concentration dependence on BODIPY-FL GDP). Besides, the EC50 at Rac1 Q61L (setting [7]) was 0.075 ± 0.059 µM; at Rac1 Q61L (setting [8]), 0.12 µM; on Cdc42 Q61L (setting [7]), 0.047 ± 0.038 µM; at Cdc42 Q61L (setting [8]) it was 0.35 µM; at H-Ras G12V (setting [7]) it was 0.052 ± 0.044 µM; on H-Ras G12V (setting [8]) it was 0.26 µM. In addition, the viability entry in the assay on H358 cells [1] is “decreased the viability of H358 cells more than the U937 FPRΔST cells”. Moreover, on Cdc42, the “level of active Cdc42 after EGF stimulation” value is “below the basal levels”. Moreover, the apoptosis entry in the assay on H358 cells [2] is recorded as “time-dependent apoptosis increase”. The apoptosis increase result in the assay on U937 FPRΔST cells is recorded as “absent”. In addition, the EGFR degradation entry in assay [3] and in assay [4] was “delayed EGFR degradation” each time. Also, in assay [5] (SAR versus compound 1), the “inhibitory activity on BODIPY-FL GTP binding across all GTPases tested (in words)” value is on record as “inhibited BODIPY^- FL GTP binding to all the GTPases tested in a dose-dependent manner”. Moreover, in assay [5] (two-hour incubation or no incubation before BODIPY-FL GTP), the slow binding behaviour entry was “not a slow binder”. Also, the “integrin VLA-4 activation (LDV-FITC binding after fMLFF)” value in assay [6] is given as “caused diminished binding”.

The values are drawn from PMC4527730, “A Pan-GTPase Inhibitor as a Molecular Probe” (PLoS ONE, 2015).
